Assay results reported in patent US9333212B2, “Proteasome inhibitors as ovoprotective agents to shield the ovary from chemotherapy toxicity” (Wisconsin Alumni Research Foundation, priority 2013, dated 2016).
Entries after “also recorded” stand apart in the source; their conditions may differ. Residues, ends and D or L forms follow the SMILES beside them. *: point of attachment. Cbz = O=C(OCc1ccccc1)*

Key:
mouse ovarian follicles [1] = experiment: TUNEL assay, follicular apoptotic index in mouse ovary; type: in vivo
Text: FIG. 5. […] Ovaries were harvested from treated mice 12 hrs post-DXR injection, fixed, and processed for the TUNEL assay. Apoptotic index measures the fraction of cells dying via apoptosis in each group. *p<0.05 one-way ANOVA n=4 mice.
To determine whether Bort pretreatment prevents DXR-induced follicular apoptosis, ovaries were harvested from mice treated with control, DXR, or Bort+DXR, 12 hrs after chemotherapy administration. Ovaries were fixed and stained using the TUNEL assay. Follicles were scored as apoptotic if they contained ≧4 TUNEL-positive granulosa cells.
TUNEL Staining. Apoptosis was detected utilizing ApopTag Plus Fluorescein In Situ Apoptosis Detection Kit as previously described. Nuclei were counterstained with 0.5 ug/mL Propidium Iodide. Apoptotic index was determined only counting follicles containing a visible oocyte; follicle types were differentiated by standard morphology and size ranges. Primary, secondary, and antral follicles were considered positive if they had ≧4 TUNEL-positive granulosa cells.
To ascertain whether Bort pretreatment prevents DXR-induced follicular apoptosis, ovaries were harvested from mice treated with control vehicle, Bort, DXR, or Bort+DXR, 12 hrs after chemo administration.

[2] = DXR accumulation in mouse ovary by autofluorescence (spectral confocal imaging); type: in vivo; settings: Bort pretreatment before DXR
Text: FIG. 11. […] A. Micrographs of mouse ovarian sections obtained by spectral confocal imaging (ex. 488 nm, em. given in panel B). Images are overlays of all collected emission wavelengths. Bar=40 μm. For print, images were adjusted equally to a threshold of 140 in Photoshop with no other image enhancements. B. Graph plots mean fluorescence intensity+/−SEM quantified from raw DXR fluorescence in ovarian sections representing the top, middle, and bottom third of the ovary. Emission profiles at 550-560 nm (cold finger) were not collected by the microscope to prevent direct detection of the excitation laser at that wavelength. Confocal parameters were identical from one sample to the next. DXR points are statistically significant from ctl and Bort-DXR with p<0.05, one-way ANOVA, Bonferroni means comparison.
Fluorescence Microscopy. Images were collected using a Nikon A1 laser scanning microscope with a motorized stage to image the entire section at 400× magnification. Each spectral image was taken at the Z plane providing maximal signal in the section utilizing identical laser settings with the spectral scan head, exciting at 488 nm and collecting emissions from 520 nm through 720 nm at 10 nm intervals. […] Total DXR fluorescence was measured in each section image using Nikon Elements, quantifying fluorescent intensity at each emission wavelength.

KK-15 granulosa cells = experiment: Neutral comet assay in KK-15 cells pretreated with proteasome inhibitor before DXR; type: cell-based; settings: 1 h pretreatment, then 3 hr 50 nM DXR
Experimental: FIG. 6. […] (A) Pretreating KK-15 cells for 1 h with the indicated Bortezomib doses prevented dsDNA breaks caused by 3 hr, 50 nM DXR treatment, as measured by the NCA. […] Bar graphs summarize comet moment data. Bortezomib (n=3, ***p<0.001), MG-132, (n=4, ***p<0.001) ANOVA with Bonferroni means comparison.
(§1) KK-15 cells were pretreated with either Bort or MG-132, boronate and aldehyde inhibitors, respectively, for 1 hr prior to DXR.

female CD-1 mice = experiment: Breeding trial: pup birth weight and litter size of treated female mice; type: in vivo, mouse
Experimental: Both drugs were administered via i.p. injection. Female mice were then mated with proven fertile males starting at 8 weeks of age. Females were mated continuously with males, separated only for pup delivery, then re-mated immediately with rotated males. Pregnancy and litters were followed until females reached 8 months of age or became infertile.

L1210 cells = settings: cited from earlier work
kidney = settings: by preserving Mcl-1 levels; cited from earlier work
[3] = system: γH2AX phosphorylation, PTEN, phospho-AKT1, Caspase 3 in mouse ovary; experiment: Western blots of ovarian lysates for cell response markers
Experimental: Lysate Preparation and Western Blots. Ovaries were homogenized, protein quantified, and WBs were conducted previously described [9]. Blots were probed with rabbit anti-γH2AFX antibody (Abcam, 1:500), and mouse anti-β actin (Sigma, 1:10,000), rabbit anti-phospho AKT1 (Cell Signaling 1:1000), rabbit anti-PTEN (Cell Signaling 1:1000), and rabbit anti-Caspase 3 (Cell Signaling 1:1000. WBs were scanned and analyzed using the 5 LiCor Odyssey System (UW-Small Molecule Screening Facility) [9].
Mice. […] Four-week old female CD1 mice were treated with 0.143 mg/kg Bort or vehicle control, followed by 20 mg/kg DXR (twice the human equivalent dose) or saline via intraperitoneal injection (200 μL total volume/injection) 1 hour later. Three mice were injected per time point, 2, 4, 6, 12, and 24 hours, as indicated. Mice were euthanized with CO2 per approved protocol, and ovaries were processed as previously described [13].
To determine whether Bort prevents the cellular response to DXR insult, Western blots (WBs) of ovarian lysates were probed for cell response markers at 6 and 24 hrs post-injection.

[4] = system: mouse ovarian cells (granulosa, stromal/thecal cells, oocytes); experiment: Neutral comet assay of dsDNA breaks in ovarian cells isolated from treated mice
Experimental: The neutral comet assay was used to measure acute DXR-induced double-strand DNA breaks in an in vivo mouse model as previously described [32]. 4-week-old adolescent female CD1 mice were pre-treated with intraperitoneal (i.p.) injection of 0.143 mg/kg Bort 1 hr prior to 20 mg/kg DXR.
Four-week old female CD1 mice were treated with 0.143 mg/kg Bort or vehicle control, followed by 20 mg/kg DXR (twice the human equivalent dose) or saline via intraperitoneal injection (200 μL total volume/injection) 1 hour later. Three mice were injected per time point, 2, 4, 6, 12, and 24 hours, as indicated.
Neutral Comet Assay. Ovaries were processed to provide enriched populations of granulosa cells/oocytes, and stromal/thecal cells that were utilized in the neutral comet assay [9, 13]. At least 100 granulosa and stromal cells and 50 oocytes were imaged from blinded slides per time point per mouse (3 mice/replicate) [9, 13]. The comet moment to quantify DNA damage was scored using CometScore software. Data were normalized to control for each experiment to allow pooling across experiments.
Four week-old adolescent mice were pretreated with 0.143 mg/kg Bort or vehicle control via i.p. injection 1 hour prior to 20 mg/kg DXR i.p. injection. The Bort dose corresponded to ⅓ the lowest human equivalent dose utilized in chemo regimens (0.43 mg/m2 vs. 1.3 mg/m2), while the DXR dose was double the standard human equivalent dose to allow direct imaging of DXR fluorescence in subsequent experiments.

KK-15 cells = experiment: DXR LD50 in KK-15 cells; type: cell-based
Text: as §1

[5] = system: mouse ovarian cells (granulosa, stromal/thecal cells, oocytes); settings: previous characterization, cited from earlier work
mouse ovarian follicles [6] = settings: previous characterization, cited from earlier work
[7] = in vivo; cited from earlier work
[8] = 1 month post-DXR; cited from earlier work
[9] = system: cardiac-derived H9C2 cells; settings: cited from earlier work
rodent ovary = settings: in vivo; cited from earlier work
[10] = Bort pretreatment vs DXR alone, 12 hrs post-DXR
[11] = Bort pretreatment, 24 hrs post-injection

Compound: CC(C)C[C@H](NC(=O)[C@H](Cc1ccccc1)NC(=O)c1cnccn1)B(O)O [Bort, bortezomib]
- DXR-induced apoptosis in the mouse ovary / ovarian follicles (mouse ovarian follicles [1]; 0.143 mg/kg Bort 1 hr before 20 mg/kg DXR, 12 hrs): attenuates DXR-induced apoptosis; also recorded: prevented DXR-induced apoptosis
- antral follicle apoptotic index (mouse ovarian follicles [1]; [10]): small decrease in the antral follicle apoptotic index; also recorded: did not prevent antral follicle apoptosis
- primary follicle apoptosis (TUNEL) (mouse ovarian follicles [1]; [10]): decreased apoptosis in primary follicles; also recorded: appeared to decrease apoptosis in primary follicles
- secondary follicle apoptosis (TUNEL) (mouse ovarian follicles [1]; [10]): levels not different from control; also recorded: significantly attenuated TUNEL signal in secondary follicles
- DXR fluorescence (accumulation) in the ovary [2]: dropped DXR fluorescence to baseline levels; also recorded: lack of chemo accumulation; also recorded: prevented DXR accumulation
- DXR-induced dsDNA breaks in KK-15 cells (comet moment) (KK-15 granulosa cells): prevented DNA damage
- DXR-induced dsDNA breaks in KK-15 cells (comet moment) (KK-15 granulosa cells; listed as Bortezomib): limited DXR-induced dsDNA breaks
- pup weight, deviation from control (female CD-1 mice; 0.143 mg/kg Bortezomib 1 hour before 10 mg/kg DXR): ≤ 6 % of control
- litter size, mating round 1 (female CD-1 mice; Bort-DXR treated mice, round 1): 8 pups
- litter size, mating round 6 (female CD-1 mice; Bort-DXR treated mice, round 6, end of the trial): 12 pups
- DXR nuclear accumulation in L1210 cells (L1210 cells): prevent DXR nuclear accumulation
- protection of the kidney from cisplatin toxicity (kidney): shields the kidney from cisplatin toxicity
- DXR-induced γH2A.X phosphorylation ([3]; 1 hr Bort pretreatment, 6 hrs post-DXR injection): attenuated DXR-induced γH2A.X phosphorylation; also recorded: attenuates γH2AX phosphorylation
- DXR-induced PTEN protein reduction ([3]; Bort pretreatment, 6 hrs post-injection): PTEN protein reduction was eliminated
- DXR-induced decrease of full-length Caspase 3 [3, 11]: prevented
- DXR-induced loss of pAKT1 [3, 11]: similarly prevented; also recorded: restored AKT1 phosphorylation to control levels
- comet moment, stromal cells, deviation from control ([4]; 0.143 mg/kg Bort i.p. 1 hr before 20 mg/kg DXR): ≤ 16 % of control
- comet moment, granulosa cells, deviation from control ([4]; 0.143 mg/kg Bort i.p. 1 hr before 20 mg/kg DXR, 2-24 hrs): ≤ 10 % of control
- DXR-induced DNA damage in stroma cells ([4]; Bort pretreatment, 4 hrs post-DXR): attenuates DXR-induced DNA damage
- DXR-induced DNA damage in granulosa and stromal cells ([4]; Bort pretreatment, 12 hrs post-DXR): attenuates DXR-induced DNA damage
- DXR-induced DNA damage in granulosa cells ([4]; Bort pretreatment, 24 hrs post-DXR): attenuates DXR-induced DNA damage
- DXR-induced DNA damage in oocytes ([4]; Bort pretreatment, 24 hrs post-DXR injection): completely blocked DNA damage
- DXR-induced dsDNA breaks in all ovarian cell types (granulosa, stromal cells, oocytes) ([4]; Bort pretreatment, entire 24 hour acute insult period): completely prevented DXR-induced DNA damage; also recorded: blocked DXR-induced dsDNA breaks; also recorded: prevents DXR-induced dsDNA breaks; also recorded: prevented DXR-induced double strand DNA breaks
- comet moment in stromal cells at 2 hrs ([4]; Bort-DXR mice, 2 hrs, followed by a drop back to baseline): small rise in comet moment

Compound: COc1cccc2c1C(=O)c1c(O)c3c(c(O)c1C2=O)C[C@@](O)(C(=O)CO)C[C@@H]3O[C@H]1C[C@H](N)[C@H](O)[C@H](C)O1 [DXR, Doxorubicin]
- apoptotic-positive secondary follicles (mouse ovarian follicles [1]; DXR alone, 12 hrs): doubling of apoptotic-positive secondary follicles
- LD50 (KK-15 cells): 50 nM
- litter size relative to control (female CD-1 mice; 10 mg/kg DXR): 50 % of control
- decrease of pup birth weight compared to controls (female CD-1 mice; 10 mg/kg DXR i.p. to 4 week old females): 17%
- litter size (female CD-1 mice; 10 mg/kg DXR, over mating rounds): 5-8 pups/litter
- increase of DNA damage over control, granulosa cells ([5]; DXR): ~2 fold
- maximal increase of DNA damage, stromal cells ([5]; DXR): 50%
- time of first DNA damage, granulosa cells ([5]; post-injection): 4 h
- time of first DNA damage, stromal/theca cells ([5]; post-injection): 2 h
- time of first significant DNA damage over control, oocytes ([5]; post-injection): 10 to 12 h
- apoptotic index, antral follicles (mouse ovarian follicles [6]; 8 hrs post-DXR): 100%
- apoptotic index, primary follicles (mouse ovarian follicles [6]; 12 hours post-DXR): 12%
- apoptotic index, secondary follicles (plateau) (mouse ovarian follicles [6]; 12 hours post-DXR): 40%
- time of first apoptotic events in primordial follicles (mouse ovarian follicles [6]; post-DXR): 48 h
- time to clearance from the blood stream [7]: 15 to 30 min
- ovulation rate relative to pre-DXR [8]: 50%
- PTEN protein expression ([3]; DXR alone, 6 hrs post-injection): appeared to decrease PTEN protein expression levels
- phosphorylated AKT1 (pAKT1) levels ([3]; DXR alone, 24 hrs post-injection): appeared to decrease levels of phosphorylated AKT1
- γH2A.X phosphorylation (17 kDa band) ([3]; DXR alone, ovarian lysates 6 hrs post-injection): increased γH2A.X phosphorylation
- comet moment (dsDNA breaks), stromal cells ([4]; 20 mg/kg DXR i.p. alone): 150 % control values
- comet moment (dsDNA breaks), granulosa cells ([4]; 20 mg/kg DXR i.p. alone, rise over 2-24 hrs post-injection): 250 % control values

Compound: CC(C)C[C@@H](C=O)NC(=O)[C@H](CC(C)C)NC(=O)[C@H](CC(C)C)NC(=O)OCc1ccccc1 [MG-132] (Cbz-Leu-Leu-Leu-aldehyde)
- DXR-induced dsDNA breaks in KK-15 cells (comet moment) (KK-15 granulosa cells): limited DXR-induced dsDNA breaks; also recorded: prevented DNA damage
- DXR nuclear accumulation in L1210 cells (L1210 cells): prevent DXR nuclear accumulation
- DXR-induced DNA damage in H9C2 cells [9]: prevents DXR-induced DNA damage

Compound: N.N.[Cl][Pt][Cl] [cisplatin]
- circulating and follicular anti-mullerian hormone (AMH) levels (rodent ovary): decreases circulating and follicular levels of anti-mullerian hormone (AMH)
- pregnancy rates and pups per litter (rodent ovary): decreases pregnancy rates and pups per litter
